# System: Hormone-independent human prostatic cancer PC-3 strain cells
# Assay: Tumor growth inhibitory activity against subcutaneously transplanted PC-3 tumors in Balb/c nu/nu mice (Experiments 1 and 2)
# Type: in vivo
# Details: one-week intervals from 17th day; for Tumor size gain (mm³) mean±SD: Experiment 1, s.c. PC-3, Compound A 100 mg/kg s.c. (maltosyl-β-cyclodextrin inclusion compound), gain over size at first administration; for Tumor size ratio (T/C %): treated vs control group; for Tumor size gain (mm³) means±SD: Experiment 2, s.c. PC-3, Compound A 100 mg/kg s.c. (maltosyl-β-cyclodextrin inclusion compound)
# Protocol: Hormone-independent human prostatic cancer PC-3 strain cells (hereinafter abbreviated as PC-3 cells) subcultured in vitro using a petri dish for tissue culture were removed from the dish wall by using 0.25% trypsin. The cells thus obtained were rinsed with Ham F-12K medium containing 10% serum and suspended in PBS (phosphate-buffered saline) so that the concentration of the cells became 3 x 10⁷/ml, and 100 µl of the resulting suspension was transplanted to the central part of the right side of the abdomens of Balb/c nu/nu mice (9 weeks old, male) with an injection syringe (25G needle). The tumor size was determined on the 17th day. The mice were divided into groups so that the mean tumor size of each groups was 96 to 97 mm³. Then administration of the drug prepared by the following method was started. The tumor size was determined with a caliper in terms of the major axis (a) and minor axis (b), and calculated from the following formula: 0.5 x a x b².
# A 5% glucose solution was added to an inclusion compound of Compound A and maltosyl-β-cyclodextrin obtained in Reference Example 1 to adjust a dosage volume to 10 µl/g body weight of each mouse, and the resulting solution was administered to dorsal subcutaneous parts of mice.
# The injection Randa (trade name, manufactured by Nippon Kayaku K.K., Japan) was used as cisplatin, dissolved in saline, adjusted to a dosage volume of 10 µl/g body weight of each mouse, and intraperitoneally administered to mice.
# In the case of administration of Compound A alone and cisplatin alone, the first administration was carried out on the 17th day after the transplantation, and thereafter administrations were carried out at one-week intervals. In the case of concomitant administration of Compound A and cisplatin, cisplatin was administered on the 17th day after the transplantation, and Compound A was administered on the 21th day after the transplantation. Thereafter, each drug was administered at one-week intervals.
# Tumor growth inhibitory activity was evaluated on the 49th day after the transplantation as follows. Each tumor size was determined on the 49th day, the tumor size on the day of the first administration was subtracted from the size on the 49th day, and the ratio (T/C%) of the tumor size of the drug administration group (T) to that of the control group (C) was calculated. The dose of the drug is indicated in terms of the weight of the drug (mg/kg body weight) per administration.
# Mice bearing PC-3 cancer cells were prepared according to the same manner as that in Experiment 1. The tumor size was determined on the 17th day after the transplantation. Mice were divided into groups so that the average tumor size of each group was 108 to 109 mm³. Then drug administration was started. Preparation of the drug, determination of the tumor size, evaluation of tumor growth inhibitory activity, etc., were carried out according to the methods of Experiment 1.
# In the case of administration of Compound A alone and cisplatin alone, the first administration was carried out on the 17th day after the transplantation, and thereafter administrations were carried out at one-week intervals.
# The following three combinations of the drugs were administered. Cisplatin and Compound A were administered on the 17th day and 21th day after the transplantation, respectively, and thereafter each drug was administered at one-week intervals. These administrations are hereinafter referred to as Combination 1. Compound A and cisplatin were administered on the 17th day and 21th day after the transplantation, respectively, and thereafter each drug was administered at one-week intervals. These administrations are hereinafter referred to as Combination 2. Compound A and cisplatin were administered simultaneously on the 17th day after the transplantation, and thereafter each drug was administered at on-week intervals. These administrations are hereinafter referred to as Combination 3. […]
# [1] = cisplatin 4 mg/kg i.p., evaluated 49th day
# [2] = Experiment 1, s.c. PC-3, Compound A 100 mg/kg s.c., cisplatin 4 mg/kg i.p., evaluated 49th day
# [3] = cisplatin 5 mg/kg i.p., evaluated 42th day
# [4] = Experiment 2, s.c. PC-3, Compound A 100 mg/kg s.c., cisplatin 5 mg/kg i.p., evaluated 42th day
compound,measurement,setting,value
6-O-(N-chloroacetylcarbamoyl)fumagillol [Compound A],Tumor size gain (mm³) mean±SD,[1],591±242 mm³
same,Tumor size ratio (T/C %),[2],49%
same,Tumor size gain (mm³) means±SD,[3],400±126 mm³
same,Tumor size ratio (T/C %),[4],30%
"N.N.[Cl][Pt][Cl] [Cisplatin, cisplatin]",Tumor size gain (mm³) mean±SD,[1],230±182 mm³
same,Tumor size ratio (T/C %),[2],19%
same,Tumor size gain (mm³) means±SD,[3],345±163 mm³
same,Tumor size ratio (T/C %),[4],26%

# From EP0658342A1, “Antineoplastic pharmaceutical composition containing a fumagillol derivative” (Takeda Chemical Industries, Ltd., priority 1993, dated 1995)
